The source of these data is patent US20070061899A1, “Transgenic mammal with constitutive, tissue-specific cytokine expression and use as a cancer model” (THE TRUSTEES OF COLUMBIA UNIVERSITY IN THE CITY OF NEW YORK, priority 2005, published 2007).

The subject of experiment [1] is IL-1β mice and C57BL/6J mice infected with Helicobacter felis. The experiment is described as follows: IL-1RA treatment of bone marrow transplanted, Helicobacter felis infected mice. Type of experiment: in vivo, mouse. The following applies: hIL-1RA by osmotic minipump, 100 mg/kg/day for 30 days; eight weeks after H. felis infection. From the text: Bone marrow transplantation, and Helicobacter felis infection and IL-RA treatment. Bone marrow was isolated from the femurs and tibias of 6-8 week old C57BL/6-TgN [ACThEGFP] (GFP) mice. Total bone marrow was washed, triturated using a 20 gauge needle and passed through a 40 sum nylon mesh cell strainer (Becton Dickson) to produce a single cell suspension in PBS. Recipient IL-β mice and C57BL/6J mice were irradiated with 900 rads from a cesium 137-gamma cell irradiator, reconstituted with 3×10^6 donor marrow cells via a single tail vein injection, and used for experiments after 2 weeks of recovery. The overall level of engraftment was 60-80% as assessed by analysis of β-galactosidase or GFP in peripheral leukocytes. Non-transplanted IL-β mice and C57BL/6 mice served as controls for all injury models. Helicobacter felis (strain 49179) was obtained from the […] (Rockville, Md.), grown as recommended and bacteria enumerated as previously described (Houghton 2004). Two weeks after transplantation, mice were infected by oral gavage with 1×10^7 colony forming units every other day for 3 days. […]
Single cell preparation and FACS analysis. […] All single cell suspensions were stained with FITC-labeled anti-CD34, PE-labeled […] as well as Cy5-labeled anti-CD3 and anti-B220 antibodies (Pharmingen) and analyzed using a FACScan™ flow cytometer. […]

Another experiment has as its system B16 melanoma. The following applies: murine B16 model, cited from earlier work.
Experiment [2] concerns tumor development induced by IL-1. The conditions noted are these: release of 25 ng per day from microencapsulated cells, mice; cited from earlier work.
Another experiment has as its system fibrosarcoma. The conditions noted are these: control mice, systemic treatments; cited from earlier work.
In experiment [3] the test system is C57BL/6J mice and Balb/c mice. The experiment is described as follows: Continuous infusion of IL-1β into mice (preliminary experiment). Type of experiment: in vivo, mouse. The following applies: continuous infusion (13 days).

For “IL-1RA: IL-1 receptor antagonist; binds IL-1 receptor type I without transmitting an activation signal”, in experiment [1], the development of gastritis entry is on record as “reduces”; the “mobilization of hematopoietic stem cells circulation and stomach tissues” value is on record as “reduces”. In the experiment with B16 melanoma, the metastases result is on record as “reduced” and the survival rates result is given as “increased”. For the same molecule, in experiment [2], the angiogenesis result is “reduced” and the tumor development entry was “inhibited”. The fibrosarcoma growth result with fibrosarcoma is on record as “inhibited”.

B1: IL-1β: proinflammatory pleiotropic cytokine, infused or injected into mice (protein, UniProt P10749 118-269, looked up)
Interleukin-1 beta: VPIRQLHYRLRDEQQKSLVLSDPYELKALHLNGQNINQQVIFSMSFVQGEPSNDKIPVALGLKGKNLYLSCVMKDGTPTLQLESVDPKQYPKKKMEKRFVFNKIEVKSKVEFESAEFPNWYISTSQAEHKPVFLGNNSGQDIIDFTMESVSS
For the molecule B1, the gastric atrophy entry in experiment [3] was “caused gastric atrophy”. For the same molecule, in the experiment on B16 melanoma (intrasplenic injection), the liver metastasis result is reported as “increased”.
